Molecular target: T1, cloned human MC4R receptors (Homo sapiens, UniProt P32245)
T1 construct: expressed in transfected cells; host or cells: Hi5 insect cells or HEK-293 cells (baculovirus/human MC4R receptor construct); membranes
Assay: Melanocortin MC4R membrane binding assay ([125I]NDP-α-MSH competition)
Conditions: [125I]NDP-α-MSH 0.1 nM, membranes of Hi5 insect cells or HEK-293 cells, 90 minutes at 37° C.
Method: Melanocortin MC4R Binding Assay. […] A membrane binding assay was used to identify competitive ligands of [^125I]NDP-α-MSH binding to cloned human MC4R receptors expressed in Hi5 insect cells or HEK-293 cells transfected by a baculovirus/human MC4R receptor construct. The membrane binding buffer was composed of 25 mM HEPES, pH 7.4, 140 mM NaCl, 1.2 mM MgCl2, 2.5 mM CaCl2, and 0.1% BSA Membrane protein (0.5 μg) and [^125I]-NDP-α-MSH (to a final concentration of 0.1 nM) were added. Competing ligands or a buffer blank were added and incubated for 90 minutes at 37° C. After filtration, the cell membranes were evaluated in a Wallac Microbeta Trilux Scintillation and Luminescence Counter (Model 1450). Dose-response cureves were fitted by […] analyses and IC50 values are calculated using ExcelFit.

T1 sequence (P32245 whole entry): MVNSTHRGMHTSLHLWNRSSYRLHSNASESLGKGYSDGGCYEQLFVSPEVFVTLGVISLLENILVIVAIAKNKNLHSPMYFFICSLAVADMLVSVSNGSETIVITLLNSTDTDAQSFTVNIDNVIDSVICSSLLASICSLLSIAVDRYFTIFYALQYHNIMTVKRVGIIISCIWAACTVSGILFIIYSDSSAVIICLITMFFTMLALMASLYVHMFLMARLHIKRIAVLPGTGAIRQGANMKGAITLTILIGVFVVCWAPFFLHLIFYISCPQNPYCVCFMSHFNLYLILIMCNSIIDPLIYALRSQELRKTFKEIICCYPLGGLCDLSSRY

Row | SMILES | IC50 [nM]
1 | CN(C)CCC(=O)N[C@H](Cc1ccc(Cl)cc1)C(=O)N1CC(N(C2CCCCC2)S(=O)(=O)c2ccccc2)C1 [Example 5] | 250 to 1000
2 | CN(C)CCC(=O)N[C@H](Cc1ccc(Cl)cc1)C(=O)N1CC(N(C(=O)c2ccno2)C2CCCCC2)C1 [Example 6] | 1000 to 10000
3 | CN(C)CCC(=O)N[C@H](Cc1ccc(Cl)cc1)C(=O)N1CC(N(C(=O)C2CCC2)C2CCCCC2)C1 [Example 7] | 250 to 1000
4 | CN(C)CCC(=O)N[C@H](Cc1ccc(Cl)cc1)C(=O)N1CC(N(C(=O)CC2CCCC2)C2CCCCC2)C1 [Example 8] | 250 to 1000
5 | CN(C)CCC(=O)N[C@H](Cc1ccc(Cl)cc1)C(=O)N1CC(N(C(=O)CC(C)(C)C)C2CCCCC2)C1 [Example 9] | 250 to 1000
6 | CN(C)CCC(=O)N[C@H](Cc1ccc(Cl)cc1)C(=O)N1CC(N(C(=O)Cc2ccccc2)C2CCCCC2)C1 [Example 10] | 250 to 1000
7 | CCCCC(=O)N(C1CCCCC1)C1CN(C(=O)[C@@H](Cc2ccc(Cl)cc2)NC(=O)CCN(C)C)C1 [Example 11] | 250 to 1000
8 | CN(C)CCC(=O)N[C@H](Cc1ccc(Cl)cc1)C(=O)N1CC(N(C(=O)c2cc3ccccc3s2)C2CCCCC2)C1 [Example 12] | 250 to 1000
9 | CN(C)CCC(=O)N[C@H](Cc1ccc(Cl)cc1)C(=O)N1CC(N(C(=O)COc2ccccc2)C2CCCCC2)C1 [Example 13] | 1000 to 10000
10 | CCCCCC(=O)N(C1CCCCC1)C1CN(C(=O)[C@@H](Cc2ccc(Cl)cc2)NC(=O)CCN(C)C)C1 [Example 15] | 250 to 1000
11 | O=C(N[C@H](Cc1ccc(Cl)cc1)C(=O)N1CC[C@@H](N(C(=O)c2ccno2)C2CCCCC2)C1)[C@H]1Cc2ccccc2CN1 [Example 19] | 250 to 1000
12 | NCCC(=O)N[C@H](Cc1ccc(Cl)cc1)C(=O)N1CC[C@@H](N(C(=O)c2ccno2)C2CCCCC2)C1 [Example 23] | 1000 to 10000
13 | NCCC(=O)N[C@H](Cc1ccc(Cl)cc1)C(=O)N1CC[C@H](N(C(=O)c2ccco2)C2CCCCC2)C1 [Example 24] | 1000 to 10000
14 | NCCC(=O)N[C@H](Cc1ccc(Cl)cc1)C(=O)N1CC[C@@H](N(C(=O)c2ccccc2)C2CCCCC2)C1 [Example 25] | 250 to 1000
15 | NCCC(=O)N[C@H](Cc1ccc(Cl)cc1)C(=O)N1CC[C@H](N(C(=O)c2cnccn2)C2CCCCC2)C1 [Example 28] | 250 to 1000
16 | COCC(=O)N(C1CCCCC1)[C@H]1CCN(C(=O)[C@@H](Cc2ccc(Cl)cc2)NC(=O)CCN)C1 [Example 31] | 250 to 1000
17 | CC(C)N(C(=O)c1ccco1)[C@@H]1CCN(C(=O)[C@@H](Cc2ccc(Cl)cc2)NC(=O)CCN)C1 [Example 36] | 1000 to 10000
18 | CC(C)N(C(=O)c1ccco1)[C@H]1CCN(C(=O)[C@@H](Cc2ccc(Cl)cc2)NC(=O)[C@H]2Cc3ccccc3CN2)C1 [Example 38] | 250 to 1000
19 | CS(=O)(=O)N(C1CCCCC1)[C@H]1CCN(C(=O)[C@@H](Cc2ccc(Cl)cc2)NC(=O)CCN)C1 [Example 39] | 250 to 1000
20 | CS(=O)(=O)N(C1CCCCC1)[C@H]1CCN(C(=O)[C@@H](Cc2ccc(Cl)cc2)NC(=O)[C@@H]2CNCCN2)C1 [Example 40] | 250 to 1000
21 | CC(C)CC(=O)N(C(C)C)[C@H]1CCN(C(=O)[C@@H](Cc2ccc(Cl)cc2)NC(=O)[C@@H]2CNCCN2)C1 [Example 42] | 250 to 1000
22 | CC(=O)N(C1CCCCC1)[C@H]1CCN(C(=O)[C@@H](Cc2ccc(Cl)cc2)NC(=O)CCN)C1 [Example 43] | 1000 to 10000
23 | NCCC(=O)N[C@H](Cc1ccc(Cl)cc1)C(=O)N1CC[C@H](N(C=O)C2CCCCC2)C1 [Example 44] | 1000 to 10000
24 | CC(C)CN(C(=O)c1ccco1)[C@H]1CCN(C(=O)[C@@H](Cc2ccc(Cl)cc2)NC(=O)CCN)C1 [Example 47] | 1000 to 10000
25 | CC(C)CC(=O)N(CC(C)C)[C@H]1CCN(C(=O)[C@@H](Cc2ccc(Cl)cc2)NC(=O)CCN)C1 [Example 48] | 1000 to 10000
26 | CC(C)CN([C@H]1CCN(C(=O)[C@@H](Cc2ccc(Cl)cc2)NC(=O)CCN)C1)S(C)(=O)=O [Example 49] | 1000 to 10000

The next lines start with the values.

Row | IC50 [nM] | SMILES
27 | 250 to 1000 | CCCC(=O)N(C1CCCC1)C1CN(C(=O)[C@@H](Cc2ccc(Cl)cc2)NC(=O)CCN(C)C)C1 [Example 1]
28 | < 250 | CCCC(=O)N(C1CCCCC1)C1CN(C(=O)[C@@H](Cc2ccc(Cl)cc2)NC(=O)CCN(C)C)C1 [Example 2]
29 | 250 to 1000 | CCCC(=O)N(C1CCCCCC1)C1CN(C(=O)[C@@H](Cc2ccc(Cl)cc2)NC(=O)CCN(C)C)C1 [Example 3]
30 | 250 to 1000 | CN(C)CCC(=O)N[C@H](Cc1ccc(Cl)cc1)C(=O)N1CC(N(C2CCCCC2)S(C)(=O)=O)C1 [Example 4]
31 | < 250 | CC(C)CC(=O)N(C1CCCCC1)C1CN(C(=O)[C@@H](Cc2ccc(Cl)cc2)NC(=O)CCN(C)C)C1 [Example 14]
32 | < 250 | CN(C)CCC(=O)N[C@H](Cc1ccc(Cl)cc1)C(=O)N1CC(N(C(=O)C2CCCC2)C2CCCCC2)C1 [Example 16]
33 | < 250 | O=C(N[C@H](Cc1ccc(Cl)cc1)C(=O)N1CCC(N(C(=O)c2ccno2)C2CCCCC2)C1)[C@H]1Cc2ccccc2CN1 (stereo partly drawn) [Example 17]
34 | < 250 | O=C(N[C@H](Cc1ccc(Cl)cc1)C(=O)N1CC[C@H](N(C(=O)c2ccno2)C2CCCCC2)C1)[C@H]1Cc2ccccc2CN1 [Example 18]
35 | < 250 | NCCC(=O)N[C@H](Cc1ccc(Cl)cc1)C(=O)N1CC[C@H](N(C(=O)c2ccno2)C2CCCCC2)C1 [Example 22]
36 | < 250 | NCCC(=O)N[C@H](Cc1ccc(Cl)cc1)C(=O)N1CC[C@H](N(C(=O)c2ccco2)C2CCCCC2)C1 [Example 26]
37 | < 250 | NCCC(=O)N[C@H](Cc1ccc(Cl)cc1)C(=O)N1CC[C@H](N(C(=O)c2ccccc2)C2CCCCC2)C1 [Example 27]
38 | < 250 | NCCC(=O)N[C@H](Cc1ccc(Cl)cc1)C(=O)N1CC[C@H](N(C(=O)c2ccoc2)C2CCCCC2)C1 [Example 29]
39 | < 250 | CCCC(=O)N(C1CCCCC1)[C@H]1CCN(C(=O)[C@@H](Cc2ccc(Cl)cc2)NC(=O)CCN)C1 [Example 30]
40 | < 250 | CC(C)(C)C(=O)N(C1CCCCC1)[C@H]1CCN(C(=O)[C@@H](Cc2ccc(Cl)cc2)NC(=O)CCN)C1 [Example 32]
41 | < 250 | NCCC(=O)N[C@H](Cc1ccc(Cl)cc1)C(=O)N1CC[C@H](N(C(=O)CC2CCCC2)C2CCCCC2)C1 [Example 33]
42 | < 250 | Cc1noc(C)c1C(=O)N(C1CCCCC1)[C@H]1CCN(C(=O)[C@@H](Cc2ccc(Cl)cc2)NC(=O)CCN)C1 [Example 34]
43 | < 250 | CS(=O)(=O)N(C1CCCCC1)[C@H]1CCN(C(=O)[C@@H](Cc2ccc(Cl)cc2)NC(=O)[C@H]2Cc3ccccc3CN2)C1 [Example 35]
44 | < 250 | CC(C)C(=O)N(C1CCCCC1)[C@H]1CCN(C(=O)[C@@H](Cc2ccc(Cl)cc2)NC(=O)CCN)C1 [Example 45]
45 | < 250 | CC(C)C(=O)N(C1CCCCC1)[C@H]1CCN(C(=O)[C@@H](Cc2ccc(Cl)cc2)NC(=O)[C@@H]2CNCCN2)C1 [Example 46]

Source: US7049323B2, “Amidoheterocycles as modulators of the melanocortin-4 receptor” (Bristol-Myers Squibb Company, priority 2003, dated 2006)
